In one data set the test system is PEO1 cells. The data set can be described thus: Cytogenetics, metaphase spreads, PEO1. It counts as cell-based. How it is done:
FIG. 4. PARP inhibitor-induced chromosomal derangement and genomic instability is dependent on DNA-PK activity. (A) Representative images of metaphase spreads from cells treated with diluent (0.2% DMSO), 500 nM DNA-PKi, 2.5 μM ABT-888, or both ABT-888 and DNA-PKi for 72 hours. Chromosomal breaks are marked with arrowheads and radial structures are marked with asterisks. (B) Quantitation of data from (A) showing average radial chromosomes per cell (n=100 for each data point pooled from two separate experiments, error bars represent SEM). † indicate values that are zero. (C) Calculated mutagenesis frequency in BRCA2-mutant CAPAN1 cells after control treatment or exposure to ABT-888 with or without 250 nM DNA-PKi. Each bar represents the mean±SEM of 5-8 plates.
Cell harvest and metaphase slide preparation were performed for metaphase analysis as described elsewhere (Fletcher, Curr. Protoc. Hum. Genet., 2:Unit 10.13. (1994)). Fifty non-banded metaphases from each cell line were analyzed and scored for radial formations as well as major and minor breakage according to the International System of Human Cytogenetic Nomenclature. Images of cells with breakage were captured using a CytoVision Imaging System (Genetix; New Milton, UK).

Data set [1] concerns BRCA2-deficient PEO1 cells. Kind of data set: Clonogenic assay, PEO1. It counts as cell-based. The method, then: FIG. 5. NHEJ is a major contributor to PARP inhibitor effects in BRCA2-deficient cells. (A) Western blots showing knockdown of Ku80 in PEO1 and PEO4 cells. (B) Clonogenic survival of PEO1 and PEO4 cells from (A), which were treated with the indicated ABT-888 concentration for 72 hours, washed, and allowed to form colonies. (C) Western blots following treatment with siRNA targeting luciferase (control), Ku80, PARP1, or both Ku80 and PARP1. (D) Clonogenic viability of PEO 1 and PEO4 cells from (C). Following knockdown, cells were plated onto triplicate plates and allowed to form colonies. (E) Clonogenic survival of PEO1 cells following Artemis knockdown. After treatment with the indicated siRNA, plates were treated with indicated concentration of ABT-888 for 72 hours, washed, and allowed to form colonies. Inset, Western blots showing knockdown using luciferase (control) or Artemis siRNAs in PEO1 cells. (F) Clonogenic survival of PEO1 and PEO4 cells treated for 72 hours with ABT-888 in combination with diluent or 500 nM DNA-PKi. All results are reported as means of triplicate plates±SEM, and are representative of 3 independent experiments.
FIG. 13. DNA-PK inhibition diminishes the lethality of multiple PARP inhibitors in PEO1 cells. (A) Representative clonogenic plates after PEO1 cells were treated with ABT-888 (0, 5, or 20 μM) with or without 500 nM DNA-PKi. (B, C) Bar graphs comparing clonogenic survival of PEO1 cells exposed to two PARP inhibitors with or without 500 nM DNA-PKi. The PARP inhibitors used for these assays are ABT-888 (B) and AZD2281/olaparib (C). Results are reported as mean±SEM of triplicate plates.
FIG. 18. Artemis knockdown confers resistance to PARP inhibition and cisplatin in BRCA2-deficient/mutant cells. Clonogenic survival assays of PEO1 shRNA lines continuously exposed to ABT-888 (A) or cisplatin (B), or exposed to ionizing radiation (C). (D-F) Clonogenic survival assays of CAPAN1 shRNA lines exposed to ABT-888 (D), cisplatin (E), or exposed to ionizing radiation (F).
Colony formation assays were performed on siRNA-transfected PEO1 and PEO4 cells 48 hours after the second transfection. Cells were trypsinized and plated at 750 cells/plate in triplicate 60-mm dishes containing medium A, allowed to grow 10-14 days, and stained with Coomassie Brilliant Blue. Colonies containing ≧50 cells were scored manually. To assess methyl methanesulfonate (MMS) sensitivity, PEO1 or PEO4 cells were incubated for 48 hours after the second siRNA treatment, plated onto 60-mm dishes, allowed to adhere for 4 hours, exposed to the indicated concentration of MMS (Sigma-Aldrich) for 1 hour, washed with sterile RPMI 1640, and allowed to grow into colonies in medium A. For drug treatment, cells (without siRNA) were allowed to adhere for 4-6 hours, then treated with the indicated concentrations of ABT-888 and/or AZ12594248 for 72 hours. Following drug treatment, cells were washed with drug-free RPMI 1640, cultured for 10-14 days in medium A, and stained. For HCC1937 and HCC1937/BRCA1 cells, a similar procedure was used with several changes: 1000 cells were plated in medium B, and treatment was continuous for 16-20 days. M059J and M059J+DNA-PKcs were plated at 1000 cells per plate in medium C and treated for 48 hours. GM16666 and 16667 were plated at 1000 cells per plate in medium D and treated for 48 hours.

Regarding `C[C@]1(c2nc3c(C(N)=O)cccc3[nH]2)CCCN1` [ABT-888], the “chromosome breaks and aberrant radial structures” value with PEO1 cells (2.5 μM ABT-888, 72 hours) is “induced the formation of chromosome breaks and aberrant radial structures”. Also, the clonogenic survival result in data set [1] (PEO1 cells, 72 hours) is on record as “decreased the clonogenic survival”. For the same compound, the “clonogenic survival with ABT-888 after siRNA depletion of Artemis” value in data set [1] (PEO1 cells, Artemis siRNA, 72 hours) was “reversed the lethality”. Besides, the “clonogenic survival with ABT-888 after Ku80 knockdown” value in data set [1] (PEO1 cells, Ku80 siRNA, 72 hours) is “markedly enhanced the survival”. In addition, the “clonogenic sensitivity after stable Artemis knockdown” value in data set [1] (PEO1 shRNA lines, continuous exposure) is recorded as “conferred resistance”.

Take `CCN1CCN(CC(=O)Nc2ccc(-c3cccc4c(=O)cc(N5CCOCC5)oc34)c3sc4ccccc4c23)CC1` [AZ 12594248]: in the data set with PEO1 cells (500 nM DNA-PKi with 2.5 μM ABT-888, 72 hours), the “effect on ABT-888-induced chromosome breaks and radial structures” value is “substantially diminished this effect”. The “effect of co-administration on AZD2281 clonogenic lethality” value in data set [1] (PEO1 cells, 500 nM DNA-PKi) is reported as “diminished the effects”. Moreover, the “effect of co-administration on ABT-888 clonogenic lethality” value in data set [1] (PEO1 cells, 500 nM DNA-PKi, 72 hours) is listed as “diminished the effects”.

Values taken from US8729048B2, “Methods and materials for assessing responsiveness to PARP inhibitors and platinating agents” (Mayo Foundation for Medical Education and Research, priority 2011, dated 2014).
